Laboratory results as given in paper PMC8607422, “Development of a novel TLR8 agonist for cancer immunotherapy” (Molecular Biomedicine, 2020).

Target: T1, hTLR9 (Homo sapiens, UniProt Q9NR96)
T1 construct: host or cells: HEK-Blue hTLR9
T1 sequence (Q9NR96 26-1032): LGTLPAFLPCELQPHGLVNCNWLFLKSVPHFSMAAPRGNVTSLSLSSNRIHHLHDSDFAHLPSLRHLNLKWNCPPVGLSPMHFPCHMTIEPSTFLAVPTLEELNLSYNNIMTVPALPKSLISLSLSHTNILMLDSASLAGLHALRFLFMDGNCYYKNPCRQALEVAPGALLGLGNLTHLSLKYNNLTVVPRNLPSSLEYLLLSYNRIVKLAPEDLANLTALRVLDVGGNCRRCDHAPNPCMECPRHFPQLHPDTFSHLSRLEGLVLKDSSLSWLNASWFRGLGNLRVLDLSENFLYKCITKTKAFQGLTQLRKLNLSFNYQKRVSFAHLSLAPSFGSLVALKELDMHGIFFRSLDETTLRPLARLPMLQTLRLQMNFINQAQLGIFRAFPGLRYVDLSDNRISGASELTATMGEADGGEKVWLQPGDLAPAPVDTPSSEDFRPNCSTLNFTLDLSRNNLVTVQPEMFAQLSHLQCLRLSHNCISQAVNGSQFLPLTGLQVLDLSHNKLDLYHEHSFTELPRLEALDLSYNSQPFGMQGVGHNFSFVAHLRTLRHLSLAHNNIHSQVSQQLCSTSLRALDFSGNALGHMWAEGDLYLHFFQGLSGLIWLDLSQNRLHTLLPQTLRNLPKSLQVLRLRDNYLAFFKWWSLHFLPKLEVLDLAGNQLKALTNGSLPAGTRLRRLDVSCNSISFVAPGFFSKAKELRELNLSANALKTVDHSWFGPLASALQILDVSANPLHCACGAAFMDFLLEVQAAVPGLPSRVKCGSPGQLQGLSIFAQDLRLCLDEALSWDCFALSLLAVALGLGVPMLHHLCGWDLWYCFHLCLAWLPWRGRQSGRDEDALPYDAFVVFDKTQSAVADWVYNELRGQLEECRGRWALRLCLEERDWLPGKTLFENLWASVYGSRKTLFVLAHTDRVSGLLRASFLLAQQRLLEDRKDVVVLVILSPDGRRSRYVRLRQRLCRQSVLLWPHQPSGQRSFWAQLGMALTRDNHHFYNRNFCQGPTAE
Test: HEK-Blue hTLR9 SEAP reporter agonist assay
Format: cell-based
Settings: HEK-Blue hTLR9 cells, highest concentration 50 μM
Description: HEK-Blue™ hTLR4, 7, 8 and 9 cell lines were purchased from InvivoGen (Hong Kong). The cells express the human TLR gene and NF-κB/AP-1-inducible SEAP (secreted embryonic alkaline phosphatase) reporter gene. SEAP levels produced upon TLR stimulation can be determined by QUANTI-Blue™. In the cell-based assay, the main reagents used were QUANTI-Blue™ (InvivoGen) and ATPlite 1 Step (Perkin Elmer). The main instruments used were the microplate reader SpectraMax 340PC (Molecular Device) and Envision (Perkin Elmer). Motolimod and DN052 were synthesized in house. […] The compounds were in 10 mM stock solution in DMSO and stored at − 20°C. The compounds were serially diluted in the concentration range from 0.5 nM to 15 μM (up to 50 μM in the hTLR4, hTLR7 and hTLR9 assays) and added to 96-well plates. DMSO was used as the negative control. LPS-EK, R848, motolimod and ODN2006 were used as the positive control for TLR4, 7, 8 and 9, respectively. The cells were cultured and treated with the compounds at 37°C, 5%CO2 for 24 h. […] After 1.5 h of incubation, the optical density was measured using the spectrophotometer at 650 nm in the microplate reader of SpectraMax 340PC. The cell viability of each well was determined using ATPlite 1 Step following the manufacturer’s instruction. The luminescence signal in each well of plates was measured in the microplate reader of Envision.

EC50: > 50 µM
Compound: CCCN(CCC)C(=O)C1=Cc2ccc(-c3ccc(C(=O)N4CCCC4)cc3)cc2N=C(N)C1 [Motolimod, motolimod]
